Laboratory results from patent US20110178104A1, “Anti-Heparin Compounds” (POLYMEDIX INC., priority 2010, published 2011).

What was measured:
[1] = tested on: unfractionated heparin (UFH); assay: aPTT clotting assay, UFH 0.2 U/mL in plasma (Example 7); format: biochemical; conditions: UFH 0.2 U/mL in plasma
Experimental: aPTT clotting Assay. Unfractionated heparin was mixed with plasma at a final concentration of 0.2 U/mL. […] The ACL Elite Hemostasis analyzer (Beckman Coulter™) was used to add aPTT reagent (HemosIL SynthASil) to supplemented plasma. Clotting was initiated by addition of CaCl2 and time to clot was recorded.

enoxaparin (ENOX) = assay: FXa chromogenic assay (absence of plasma), enoxaparin; conditions: enoxaparin 0.1 μg/mL, absence of plasma
fondaparinux (FONDAPX) = assay: FXa chromogenic assay (absence of plasma), fondaparinux; conditions: fondaparinux 0.02 μg/mL, absence of plasma
Experimental: Human antithrombin was mixed with an anticoagulant agent (a LMWH or fondaparinux); final concentrations were 0.22 μg/mL for the LMWHs and 0.07 μg/mL for fondaparinux. […] Absorbance was read every 30 seconds over a 4 minute period in a SpectraMax 250 instrument (Molecular Devices, Inc.). EC50 values are determined by a curve-fit program (SoftMax Pro) using the following formula:
FXa Chromogenic Assay (absence of plasma). Human antithrombin was mixed with an anticoagulant (a LMWH or fondaparinux); final concentrations were 0.1 μg/mL for the LMWHs and 0.02 μg/mL for fondaparinux. […] Absorbance was read every 30 seconds over a 4 minute period in a SpectraMax 250 instrument (Molecular Devices Inc.™) The slope of absorbance vs time was calculated for each compound concentration. EC50 values were determined using a curve fit program (GraphPad Prism 5).

Compound | UFH (aPTT) EC50 [1] | ENOX (FXa) EC50 (enoxaparin (ENOX)) | FONDAPX (FXa) EC50 (fondaparinux (FONDAPX))
COc1ccc(NC(=O)[C@H](CCCCN)NC(=O)c2cc(NC(=O)[C@H](CCCCN)NC(=O)c3cc(NC(=O)[C@H](CCCCN)NC(=O)c4cc(NC(=O)[C@@H](N)CCCCN)ccc4OC)ccc3OCC(=O)O)ccc2OC)cc1C(N)=O [Compound 118] | 3.14 mg/L | – | –
COc1ccc(NC(=O)[C@@H](CCCNC(=N)N)NC(=O)c2cc(NC(=O)[C@H](N)CCCNC(=N)N)ccc2F)cc1C(=O)N[C@H](CCCNC(=N)N)C(=O)Nc1ccc(OC)c(C(=O)N[C@H](CCCNC(=N)N)C(=O)Nc2ccc(F)c(C(N)=O)c2)c1 [Compound 24] | – | 0.47 mg/L | 9.23 mg/L
COc1ccc(NC(=O)[C@H](CCCCN)NC(=O)c2cc(NC(=O)[C@H](CCCCN)NC(=O)c3cc(OC(=O)[C@@H](N)CCCCN)ccc3OC)ccc2OC)cc1C(=O)N[C@@H](CCCCN)C(=O)Nc1ccc(OCC(=O)O)c(C(N)=O)c1 [Compound 116] | 3.10 mg/L | – | –
COc1ccc(NC(=O)[C@@H](CCCNC(=N)N)NC(=O)c2cc(NC(=O)[C@@H](CCCNC(=N)N)NC(=O)c3cc(NC(=O)[C@@H](CCCNC(=N)N)NC(=O)c4cc(NC(=O)[C@@H](C)NC(=O)CCN)ccc4OC)ccc3OC)ccc2OC)cc1C(=O)NCCN [Compound 59] | – | 0.13 mg/L | 4.53 mg/L
COc1ccc(NC(=O)[C@@H](CCCNC(=N)N)NC(=O)c2cc(NC(=O)[C@@H](CCCNC(=N)N)NC(=O)c3cc(NC(=O)[C@@H](CCCNC(=N)N)NC(=O)c4cc(NC(=O)[C@H](N)CCCNC(=N)N)ccc4F)ccc3F)ccc2OC)cc1C(N)=O [Compound 25] | – | 0.97 mg/L | 10.36 mg/L
COc1ccc(NC(=O)[C@@H](CCCNC(=N)N)NC(=O)c2cc(NC(=O)[C@@H](CCCNC(=N)N)NC(=O)c3cc(NC(=O)[C@@H](CCCNC(=N)N)NC(=O)c4cc(NC(=O)[C@@H](C)N)ccc4OC)ccc3OC)ccc2OC)cc1C(=O)NCCCCCN [Compound 55] | – | 0.18 mg/L | 4.16 mg/L
COc1ccc(NC(=O)[C@@H](CCCNC(=N)N)NC(=O)c2cc(NC(=O)[C@@H](CCCNC(=N)N)NC(=O)c3cc(NC(=O)[C@@H](CCCNC(=N)N)NC(=O)c4cc(NC(=O)[C@@H](C)N)ccc4OC)ccc3OC)ccc2OC)cc1C(=O)NCCN [Compound 54] | – | 0.22 mg/L | 5.92 mg/L
COc1ccc(NC(=O)[C@@H](CCCNC(N)=O)NC(=O)c2cc(NC(=O)[C@@H](CCCNC(N)=O)NC(=O)c3cc(NC(=O)[C@@H](CCCNC(N)=O)NC(=O)c4cc(NC(=O)[C@H](N)CCCNC(N)=O)ccc4OC)ccc3OC)ccc2OC)cc1C(N)=O [Compound 33] | – | 4.30 mg/L | inactive
COc1ccc(NC(=O)[C@@H](CCCNC(=N)N)NC(=O)c2cc(NC(=O)[C@@H](CCCNC(=N)N)NC(=O)c3cc(NC(=O)[C@@H](CCCNC(=N)N)NC(=O)c4cc(NC(=O)[C@H](N)CCCNC(=N)N)ccc4OC)ccc3OC)ccc2OC)cc1C(=O)NCCN [Compound 51] | – | 0.15 mg/L | 4.26 mg/L
COc1ccc(NC(=O)[C@@H](CCCNC(=N)N)NC(=O)c2cc(NC(=O)[C@@H](CCCNC(=N)N)NC(=O)c3cc(NC(=O)[C@@H](CCCNC(=N)N)NC(=O)c4cc(NC(=O)[C@H](N)CCCNC(N)=O)ccc4OC)ccc3OC)ccc2OC)cc1C(N)=O [Compound 82] | – | 0.07 mg/L | 0.77 mg/L
COc1ccc(NC(=O)[C@@H](CCCNC(=N)N)NC(=O)c2cc(NC(=O)[C@@H](CCCNC(=N)N)NC(=O)c3cc(NC(=O)[C@@H](CCCNC(=N)N)NC(=O)c4cc(NC(=O)[C@@H](C)NC(C)=O)ccc4OC)ccc3OC)ccc2OC)cc1C(=O)NCCN [Compound 56] | – | 0.43 mg/L | 5.24 mg/L
COc1ccc(NC(=O)[C@@H](CCCNC(=N)N)NC(=O)c2cccc(NC(=O)[C@H](N)CCCNC(=N)N)c2)cc1C(=O)N[C@H](CCCNC(=N)N)C(=O)Nc1ccc(OC)c(C(=O)N[C@H](CCCNC(=N)N)C(=O)Nc2cccc(C(N)=O)c2)c1 [Compound 21] | – | 0.65 mg/L | 8.84 mg/L
COc1ccc(NC(=O)[C@@H](CCCNC(=N)N)NC(=O)c2cc(NC(=O)[C@@H](CCCNC(=N)N)NC(=O)c3cc(NC(=O)[C@@H](CCCNC(=N)N)NC(=O)c4cc(NC(=O)[C@@H](C)NC(C)=O)ccc4OC)ccc3OC)ccc2OC)cc1C(=O)NCCCCCN [Compound 60] | – | 0.21 mg/L | 2.66 mg/L
COc1ccc(NC(=O)[C@@H](CCCNC(=N)N)NC(=O)c2cc(NC(=O)[C@@H](CCCNC(=N)N)NC(=O)c3cc(NC(=O)[C@@H](CCCNC(=N)N)NC(=O)c4cc(NC(=O)[C@@H](C)NC(=O)CCN)ccc4OC)ccc3OC)ccc2OC)cc1C(=O)NCCCCCN [Compound 63] | – | 0.10 mg/L | 3.29 mg/L
COc1ccc(NC(=O)[C@@H](CCCNC(=N)N)NC(=O)c2cc(NC(=O)[C@@H](CCCNC(=N)N)NC(=O)c3cc(NC(=O)[C@@H](CCCNC(=N)N)NC(=O)c4cc(NC(=O)[C@@H](C)NC(=O)CCCCNC(=N)N)ccc4OC)ccc3OC)ccc2OC)cc1C(=O)NCCCCCN [Compound 61] | – | 0.11 mg/L | 2.99 mg/L
N=C(N)NCCC[C@@H](N)C(=O)Nc1ccc(F)c(C(=O)N[C@H](CCCNC(=N)N)C(=O)Nc2ccc(F)c(C(=O)N[C@H](CCCNC(=N)N)C(=O)Nc3ccc(F)c(C(=O)N[C@H](CCCNC(=N)N)C(=O)Nc4ccc(F)c(C(N)=O)c4)c3)c2)c1 [Compound 23] | – | 3.68 mg/L | 18.01 mg/L
COc1ccc(NC(=O)[C@@H](CCCNC(=N)N)NC(=O)c2cc(NC(=O)[C@@H](CCCNC(=N)N)NC(=O)c3cc(NC(=O)[C@@H](CCCNC(=N)N)NC(=O)c4cc(NC(=O)[C@@H](C)NC(=O)CCCCNC(=N)N)ccc4OC)ccc3OC)ccc2OC)cc1C(=O)NCCN [Compound 57] | – | 0.17 mg/L | 3.25 mg/L
N=C(N)NCCC[C@@H](N)C(=O)Nc1cccc(C(=O)N[C@H](CCCNC(=N)N)C(=O)Nc2cccc(C(=O)N[C@H](CCCNC(=N)N)C(=O)Nc3cccc(C(=O)N[C@H](CCCNC(=N)N)C(=O)Nc4cccc(C(N)=O)c4)c3)c2)c1 [Compound 20] | – | 8.62 mg/L | 11.10 mg/L
COc1ccc(NC(=O)[C@@H](CCCCNC(=N)N)NC(=O)c2cc(NC(=O)[C@@H](CCCCNC(=N)N)NC(=O)c3cc(NC(=O)[C@@H](CCCCNC(=N)N)NC(=O)c4cc(NC(=O)[C@H](N)CCCCNC(=N)N)ccc4OC)ccc3OC)ccc2OC)cc1C(N)=O [Compound 12] | – | 0.36 mg/L | 4.26 mg/L
COc1ccc(NC(=O)C(CCCCN)NC(=O)c2cc(NC(=O)C(CCCCN)NC(=O)c3cc(NC(=O)C(CCCCN)NC(=O)c4cc(NC(=O)C(CCCCN)NC(=N)N)ccc4OC)ccc3OC)ccc2OC)cc1C(N)=O (centres unmarked) [Compound 29] | – | 0.78 mg/L | 8.33 mg/L
COc1ccc(NC(=O)[C@@H](CCCNC(=N)N)NC(=O)c2cc(NC(=O)[C@@H](CCCNC(=N)N)NC(=O)c3cc(NC(=O)[C@@H](CCCNC(=N)N)NC(=O)c4cc(NC(=O)[C@@H](C)NC(=O)CCCCN)ccc4OC)ccc3OC)ccc2OC)cc1C(=O)NCCCCCN [Compound 62] | – | 0.10 mg/L | 3.99 mg/L
COc1ccc(NC(=O)[C@@H](CCCNC(=N)N)NC(=O)c2cc(NC(=O)[C@@H](CCCNC(=N)N)NC(=O)c3cc(NC(=O)[C@@H](Cc4c[nH]c5ccccc45)NC(=O)c4cc(NC(=O)[C@H](N)CCCNC(=N)N)ccc4OC)ccc3OC)ccc2OC)cc1C(N)=O [Compound 85] | – | 0.36 mg/L | 1.93 mg/L
COc1ccc(NC(=O)[C@@H](CCCNC(=N)N)NC(=O)c2cc(NC(=O)[C@@H](CCCNC(=N)N)NC(=O)c3cc(NC(=O)[C@@H](CCCNC(=N)N)NC(=O)c4cc(NC(=O)[C@@H](C)NC(=O)CCCCN)ccc4OC)ccc3OC)ccc2OC)cc1C(=O)NCCN [Compound 58] | – | 0.36 mg/L | 3.94 mg/L
COc1ccc(NC(=O)[C@@H](CCCCN)NC(=O)c2cc(NC(=O)[C@H](CCCCN)NC(=O)c3cc(NC(=O)[C@@H](CCCCN)NC(=O)c4cc(NC(=O)[C@@H](N)CCCCN)ccc4OC)ccc3OC)ccc2OC)cc1C(N)=O [Compound 37] | – | 45.00 mg/L | inactive
COc1ccc(NC(=O)[C@@H](CCCCN)NC(=O)c2c(OC)ccc(NC(=O)[C@@H](CCCCN)NC(=O)c3c(OC)ccc(NC(=O)[C@@H](CCCCN)NC(=O)c4c(OC)ccc(NC(=O)[C@H](N)CCCCN)c4OC)c3OC)c2OC)c(OC)c1C(N)=O [Compound 36] | – | 45.00 mg/L | inactive
COc1ccc(NC(=O)[C@@H](C)NC(=O)c2cc(NC(=O)[C@@H](CCCNC(=N)N)NC(=O)c3cc(NC(=O)[C@@H](CCCNC(=N)N)NC(=O)c4cc(NC(=O)[C@H](N)CCCNC(=N)N)ccc4OC)ccc3OC)ccc2OC)cc1C(N)=O [Compound 13] | – | 0.88 mg/L | 6.72 mg/L
